In article PMC5549559 (Cellular signalling, 2015):

What was measured:
[1] = system: kappa opioid receptor (KOR); experiment: PathHunter β-arrestin recruitment assay in Drx-KOR cells; type: cell-based; settings: dynorphin, various concentrations, 90 min at 37°C; Drx-KOR cells (Figure 5A)
p38 = p38 activation; type: cell-based, Chinese hamster; settings: western blot, ± SD, mean of 3 separate experiments (Figure 5D)
[2] = system: kappa opioid receptor (KOR); experiment: GloSensor cAMP assay; type: cell-based
rats = settings: ref [11], cited from earlier work; for cocaine self-administration (drug intake): intra-VTA infusion, rats

Compound: Dynorphin A (1-17) (YGGFLRRIRPKLKWDNQ; Dynorphin A(1-17); UniProt P01213 207-223, looked up)
- β-arrestin recruitment to KOR (luminescence) [1]: concentration-dependent increase in luminescence
- increase in phospho-p38/total p38 (p38; 1 μM dynorphin, 15 min, CHO-KOR cells, relative to untreated): 1.76 ± 0.12 fold
- increase in phospho-p38/total p38 (p38; CHO-KOR + HA-OX1R, 500 nM orexin 10 min prior to dynorphin, relative to untreated cells): 2.82 ± 0.36 fold
- KOR response to dynorphin (cAMP) on transfection and activation of 5HT2aR ([2]; 1 μM dynorphin, CHO-KOR + 5HT2aR, activated (Figure 1A)): does not affect the KOR response to dynorphin

Compound: O=S(=O)(NCCNC/C=C/c1ccc(Br)cc1)c1cccc2cnccc12 [H89]
- effect of PKA inhibitor on OX1R attenuation of KOR Gαi signaling ([2]; PKI or H89, 2 h, CHO-KOR + HA-OX1R, 500 nM orexin, 1 μM dynorphin (Figure 2B)): did not affect OX1R attenuation of KOR Gαi signaling

Compound: Cc1nc2ccc(NC(=O)Nc3ccnc4cccnc34)cc2o1 [SB-334867]
- cocaine self-administration (drug intake) (rats): reduces cocaine self-administration in rats

Compound: Oc1ccc2c3c1O[C@H]1c4[nH]c5c(c4C[C@@]4(O)[C@@H](C2)N(CC2CC2)CC[C@]314)C[C@@]1(O)[C@H]2Cc3ccc(O)c4c3[C@@]1(CCN2CC1CC1)[C@H]5O4 [norBNI]
- cocaine self-administration (drug intake) (rats): has no effect on drug intake
- effect on ability of SB-334867 to reduce drug intake (rats; norBNI with SB-334867, rats): blocks the ability of SB-334867 to reduce drug intake
